# Measured values published in patent publication US20220409681A1, “LACTOBACILLUS SALIVARIUS LS97 AND APPLICATION THEREOF” (WECARE PROBIOTICS CO., LTD., priority 2019, published 2022).
# Legend:
# Streptococcus sobrinus = assay: Rat dental caries model: oral S. sobrinus count and Keyes caries score; assay type: in vivo, Wistar rats
# Protocol: (§1) SPF female Wistar rats (about 3 weeks old) were obtained and housed in a barrier environment with constant temperature and humidity, with 12 h of light and 12 h of darkness. All rats were acclimated to the environment and diet in a week before experiment, and then were randomly divided into groups according to body weight. The rats were randomly divided into 4 groups according to body weight with 10 rats in each group, among which one group was set as the blank control group (blank group), one group was set as the dental caries model group (dental caries group), and two groups were set as the intervention group. The intervention groups were wiped S. sobrinus continuously for 7 days, and after confirming that S. sobrinus was successfully colonized in the rat's oral cavity, the corresponding experimental groups were wiped chlorhexidine (chlorhexidine group) and LS97 (LS97 group) continuously for 7 days respectively, and then 3 times a week. Chlorhexidine, an ionic drug with good antibacterial effect, was used as a positive control group. The cariogenic bacteria S. sobrinus and LS97 were both cultured overnight for 12 h. After adjusted to a bacterial concentration of 1×10^8 CFU/mL, 0.2 mL of bacterial suspension was wiped onto the rat molars by sterile cotton swab, and namely, the cotton swab that absorbed bacterial suspension sufficiently worked on each quarter of the rat's oral teeth for the same 15 s. During the experiment, except for the blank control group fed normal feed and drinking water, other groups were all fed cariogenic feed Diet 2000# and drinking water added with 5% sucrose, in which the main components of cariogenic feed are shown in Table 4. The experimental period was maintained for 10 weeks.
# At the 3rd, 7th, and 10th weeks of the experiment (corresponding to the early, middle and late stages of the experiment, respectively), the first, second and third samplings were performed on the oral teeth of rats, and samples were spread on MRS solid medium added with vancomycin of 12 μg/mL for Streptococcus sobrinus count.
# After the rat experiment was finished, the rats were killed and the rat molars were taken out. The molars were placed in a 0.4% murexide dye liquor and soaked for 12 h overnight for dyeing. After the molars were rinsed by clean water and dried naturally, the caries lesion condition of rat molars in each group was observed under a stereo microscope. Caries scoring was performed on the rat teeth by using the Keyes caries scoring method. According to Keyes' classic method for evaluating dental caries, the lesion degree of dental caries is divided into four grades: E-grade caries, caries lesion involving enamel only; Ds-grade caries, enamel caries lesion and caries lesion involving the outer dentin less than ¼; Dm-grade caries, caries lesion involving the dentin thickness within ¼ to ¾; Dx-grade caries, caries lesion involving the dentin thickness more than ¾, and the result is shown in FIG. 4.
# [1] = Rat dental caries model: body weight; assay type: in vivo, Wistar rats
# Protocol: as §1
# [2] = Keyes caries scoring, FIG. 4, versus dental caries model group
compound,measurement,setting,value
[H]/N=C(\N/C(=N/[H])NCCCCCCNC(=N)NC(=N)Nc1ccc(Cl)cc1)Nc1ccc(Cl)cc1 [Chlorhexidine],Effect on Dm caries (in words),Streptococcus sobrinus; [2],not obvious
same,Effect on E caries and Ds caries (in words),Streptococcus sobrinus; [2],effectively reduced
same,Change of the number of Streptococcus sobrinus in the oral cavity (in words),"Streptococcus sobrinus; after intervention, chlorhexidine statement refers to the third test",showed an increment circumstance
same,Count of Streptococcus sobrinus in oral sampling,"Streptococcus sobrinus; sampling number 1, 3rd week",5.53 ± 0.23 Log value
same,Count of Streptococcus sobrinus in oral sampling,"Streptococcus sobrinus; sampling number 2, 7th week",4.00 ± 0.19 Log value
same,Count of Streptococcus sobrinus in oral sampling,"Streptococcus sobrinus; sampling number 3, 10th week",4.31 ± 0.13 Log value
same,Body weight of rats after the experiment,[1]; 10 weeks,212.49 ± 23.86 g
same,Rat body weight increment,[1]; 10 weeks,147.83 ± 19.73 g
same,Body weight of rats before the experiment,[1]; baseline,60.32 ± 5.28 g
